The record followed here is US5770597A, “Quinolone derivatives and processes for preparing the same” (Korea Research Institute of Chemical Technology, priority 1993, dated 1998).

Structures are written as SMILES. ≈ marks a conversion by molar mass, not a printed value. Where two headings read alike, the source gives them in different places.

The test system of one assay is Escherichia coli O 78. Kind of assay: In vitro antibacterial activity (MIC), agar two-fold dilution. In kind it is cell-based. The conditions noted are these: 10^7 CFU/ml, 37° C., 18 hours. On the procedure:
(§1) The numbers in Tables represent the minimal inhibitory concentration (MIC, μg/ml) of the corresponding strains and MIC was determined in accordance with the agar culture medium two-fold dilution method by using a Mueller-Hinton agar.
(§2) Hoechst standard strains were used. […]

The subject of assay [1] is Klebsiella aerogenes 1082E. Described as above. In kind it is cell-based. On the procedure:
as §1, §2

Assay [2] deals with Klebsiella aerogenes 1552E. Described as above. It counts as cell-based. On the procedure:
as §1, §2

The test system of assay [3] is Pseudomonas aeruginosa 1592E. The assay is described as above. It counts as cell-based. The method, then:
as §1, §2

The test system of assay [4] is Pseudomonas aeruginosa 1771M. Described as above. It counts as cell-based. The conditions noted are these: 18 h. The method, then: as §1, §2
The subject of assay [5] is Pseudomonas aeruginosa 1771. Described as above. It counts as cell-based. On the procedure: as §1, §2
The test system of assay [6] is Pseudomonas aeruginosa 9027. The assay is described as above. In kind it is cell-based. On the procedure: as §1, §2
In another assay the test system is Salmonella typhimurium. The description is as above. In kind it is cell-based. The method, then: as §1, §2
Assay [7] has as its system Staphylococcus aureus 285. Described as above. It counts as cell-based. On the procedure:
as §1, §2

Assay [8] has as its system Staphylococcus aureus 503. Described as above. In kind it is cell-based. On the procedure: as §1, §2
Assay [9] concerns Staphylococcus aureus SG 511. The description is as above. In kind it is cell-based. On the procedure:
as §1, §2

The subject of assay [10] is Streptococcus faecium MD 8b. The assay is described as above. In kind it is cell-based. On the procedure:
as §1, §2

Assay [11] has as its system Streptococcus pyogenes 308A. The assay is described as above. In kind it is cell-based. On the procedure: as §1, §2
For assay [12], the system named is Streptococcus pyogenes 77A. The description is as above. It counts as cell-based. On the procedure:
as §1, §2

The test system of a further assay is Escherichia coil 1507E. Described as above. As to conditions: Mueller-Hinton agar, 10^7 CFU/ml, 37° C., 18 hours. It counts as cell-based, Escherichia coli. On the procedure:
as §1, §2

In another assay the test system is Escherichia coil DC 0. The description is as above. In kind it is cell-based, Escherichia coli. On the procedure: as §1, §2
A further assay has as its system Escherichia coil DC 2. Described as above. In kind it is cell-based, Escherichia coli. The method, then: as §1, §2
Another assay deals with Escherichia coil TEM. The description is as above. It counts as cell-based, Escherichia coli. The method, then: as §1, §2
For assay [13], the system named is Enterobacter cloacae P 99. In kind it is cell-based. The conditions noted are these: Mueller-Hinton agar, 10^7 CFU/ml, 37° C., 18 hours. On the procedure:
as §1
(§3) Hoechst standard strains were used.

Assay [14] deals with Enterobacter cloacae 1321E. Nature of the assay: In vitro antibacterial activity (MIC), agar two-fold dilution. In kind it is cell-based. As to conditions: Mueller-Hinton agar, 10^7 CFU/ml, 37° C., 18 hours. On the procedure: as §1, §3
Where [15] appears, read: Klebsiella aerogenes 1082E, Mueller-Hinton agar, 10^7 CFU/ml, 37° C., 18 hours.
The mark [16] stands for this setting: Klebsiella aerogenes 1552E, Mueller-Hinton agar, 10^7 CFU/ml, 37° C., 18 hours.
[17] abbreviates: Pseudomonas aeruginosa 1592E, Mueller-Hinton agar, 10^7 CFU/ml, 37° C., 18 hours.
Where [18] appears, read: Pseudomonas aeruginosa 1771, Mueller-Hinton agar, 10^7 CFU/ml, 37° C., 18 hours.
The mark [19] stands for this setting: Pseudomonas aeruginosa 9027, Mueller-Hinton agar, 10^7 CFU/ml, 37° C., 18 hours.
The mark [20] stands for this setting: Salmonella typhimurium, Mueller-Hinton agar, 10^7 CFU/ml, 37° C., 18 hours.
Where [21] appears, read: Staphylococcus aureus 285, Mueller-Hinton agar, 10^7 CFU/ml, 37° C., 18 hours.
Setting [22] is: Staphylococcus aureus 503, Mueller-Hinton agar, 10^7 CFU/ml, 37° C., 18 hours.
Where [23] appears, read: Staphylococcus aureus SG 511, Mueller-Hinton agar, 10^7 CFU/ml, 37° C., 18 hours.
The mark [24] stands for this setting: Streptococcus faecium MD 8b, Mueller-Hinton agar, 10^7 CFU/ml, 37° C., 18 hours.
Where [25] appears, read: Streptococcus pyogenes 308A, Mueller-Hinton agar, 10^7 CFU/ml, 37° C., 18 hours.
Setting [26] is: Streptococcus pyogenes 77A, Mueller-Hinton agar, 10^7 CFU/ml, 37° C., 18 hours.
The mark [27] stands for this setting: Escherichia coil DC 0, Mueller-Hinton agar, 10^7 CFU/ml, 37° C., 18 hours.
[28] abbreviates: Escherichia coil DC 2, Mueller-Hinton agar, 10^7 CFU/ml, 37° C., 18 hours.
Where [29] appears, read: Escherichia coil TEM, Mueller-Hinton agar, 10^7 CFU/ml, 37° C., 18 hours.

The term MIC denotes the smallest concentration in the dilution series that meets the test's criterion for growth inhibition. For `O=C(O)c1cn(C2CC2)c2cc(N3CCNCC3)c(F)cc2c1=O` [Ciprofloxacin, ciprofloxacin, reference compound], the MIC with Escherichia coli O 78 (O78, Mueller-Hinton agar, read-out: MIC) was below 0.002 µg/mL; in assay [1] (Klebsiella aerogenes, 1082E, 18 h), below 0.002 µg/mL; in assay [2] (Klebsiella aerogenes, 1552E, 18 h) it was 0.013 µg/mL (≈ 0.0392 µM); in assay [3] (Pseudomonas aeruginosa, 1592E, 18 h), 0.195 µg/mL (≈ 0.589 µM); in assay [4], 0.049 µg/mL (≈ 0.148 µM); in [5] (Pseudomonas aeruginosa, 1771, 18 h) it was 0.195 µg/mL (≈ 0.589 µM). Moreover, the MIC in assay [6] (Pseudomonas aeruginosa, 9027, 18 h) is 0.391 µg/mL (≈ 1.18 µM); in the assay on Salmonella typhimurium (Salmonella enterica, TYPHIMURIUM, 18 h), 0.007 µg/mL (≈ 0.0211 µM); in assay [7] (Staphylococcus aureus, 285, 18 h) it was 0.391 µg/mL (≈ 1.18 µM); in assay [8] (Staphylococcus aureus, 503, 18 h) it was 0.781 µg/mL (≈ 2.36 µM); in assay [9] (Staphylococcus aureus, SG511, 18 h), 0.195 µg/mL (≈ 0.589 µM); in [10] (Enterococcus faecium, MD8B, 18 h) it was 0.781 µg/mL (≈ 2.36 µM). Also, the minimal inhibitory concentration (MIC) in assay [11] (Streptococcus pyogenes, 308A, 18 h) stood at 3.12 µg/mL (≈ 9.43 µM); in [12] (Streptococcus pyogenes, 77A, 18 h), 0.781 µg/mL (≈ 2.36 µM); in the assay with Escherichia coil 1507E (read-out: MIC) it was 0.007 µg/mL (≈ 0.0211 µM); in the assay with Escherichia coil DC 0 (Escherichia, DC0, 18 h) it was 0.195 µg/mL (≈ 0.589 µM); against Escherichia coil DC 2 (Escherichia, DC2, 18 h), 0.098 µg/mL (≈ 0.296 µM); in the assay on Escherichia coil TEM (Escherichia, 18 h), 0.007 µg/mL (≈ 0.0211 µM).

Turning to `COc1c(N2CC3CCCNC3C2)c(F)cc2c(=O)c(C(=O)C[N+](=O)[O-])cn(C3CC3)c12.Cl` (racemic) [C, 1-cyclopropyl-3-nitroacetyl-6-fluoro-8-methoxy-7-[(trans-piperidinopyrrolidine)-8-yl]-4-oxo-1,4-dihydroquinoline hydrochloride], the MIC against Escherichia coli O 78 (Mueller-Hinton agar) is below 0.002 µg/mL; in assay [1] (setting [15]), 0.049 µg/mL; in [2] (setting [16]) it was 0.013 µg/mL; in assay [3] (setting [17]), 0.781 µg/mL; in assay [5] (setting [18]), 0.781 µg/mL; in assay [6] (setting [19]), 0.781 µg/mL. The minimum inhibitory concentration (MIC) against Salmonella typhimurium (setting [20]) worked out at 0.007 µg/mL; in [7] (setting [21]), 0.025 µg/mL; in assay [8] (setting [22]), 0.025 µg/mL; in assay [9] (setting [23]), 0.098 µg/mL; in assay [10] (setting [24]) it was 0.391 µg/mL; in assay [11] (setting [25]) it was 0.781 µg/mL. In addition, the MIC is 0.391 µg/mL in assay [12] (setting [26]); 0.025 µg/mL against Escherichia coil 1507E; 0.195 µg/mL against Escherichia coil DC 0 (setting [27]); 0.098 µg/mL with Escherichia coil DC 2 (setting [28]); 0.004 µg/mL in the assay on Escherichia coil TEM (setting [29]); 0.004 µg/mL in assay [13]. Moreover, in assay [14], the MIC was below 0.002 µg/mL.

Consider `COc1c(N2C[C@@H]3CCCN[C@@H]3C2)c(F)cc2c(=O)c(C(=O)C[N+](=O)[O-])cn(C3CC3)c12.Cl` (racemic) [D, 1-cyclopropyl-3-nitroacetyl-6-fluoro-8-methoxy-7-[(cis-piperidinopyrrolidine)-8-yl]-4-oxo-1,4-dihydroquinoline hydrochloride], for which the MIC against Escherichia coli O 78 (Mueller-Hinton agar) stood at 0.049 µg/mL; in assay [1] (setting [15]) it was 0.049 µg/mL; in assay [2] (setting [16]), 0.049 µg/mL; in [3] (setting [17]) it was 0.781 µg/mL; in [5] (setting [18]) it was 0.781 µg/mL; in assay [6] (setting [19]), 1.563 µg/mL. Moreover, the MIC came to 0.098 µg/mL with Salmonella typhimurium (setting [20]); 0.391 µg/mL in assay [7] (setting [21]); 0.391 µg/mL in assay [8] (setting [22]); 0.195 µg/mL in assay [9] (setting [23]); 0.391 µg/mL in assay [10] (setting [24]); 1.563 µg/mL in assay [11] (setting [25]). Further, the MIC is 0.391 µg/mL in [12] (setting [26]); 0.098 µg/mL against Escherichia coil 1507E; 0.195 µg/mL against Escherichia coil DC 0 (setting [27]); 0.098 µg/mL against Escherichia coil DC 2 (setting [28]); 0.098 µg/mL against Escherichia coil TEM (setting [29]); 0.013 µg/mL in [13]. Besides, in assay [14], the MIC came out at 0.013 µg/mL.

For `O=C(O)c1cn(C2CC2)c2c(Cl)c(N3CC4CCCNC4C3)c(F)cc2c1=O` (stereo not drawn) [A, 1-cyclopropyl-6-fluoro-7-[(trans-piperidinopyrrolidine)-8-yl]-8-chloro-1,4-dihydroguinoline-4-oxo-3-carboxylicacid], the MIC in the assay with Escherichia coli O 78 (Mueller-Hinton agar) is below 0.002 µg/mL; in assay [1] (setting [15]), below 0.002 µg/mL; in assay [2] (setting [16]), 0.049 µg/mL (≈ 0.121 µM); in assay [3] (setting [17]), 0.781 µg/mL (≈ 1.92 µM); in assay [5] (setting [18]), 0.781 µg/mL (≈ 1.92 µM); in assay [6] (setting [19]), 0.781 µg/mL (≈ 1.92 µM). Also, the MIC is below 0.002 µg/mL against Salmonella typhimurium (setting [20]); 0.025 µg/mL (≈ 0.0616 µM) in [7] (setting [21]); 0.025 µg/mL (≈ 0.0616 µM) in assay [8] (setting [22]); 0.025 µg/mL (≈ 0.0616 µM) in [9] (setting [23]); 0.098 µg/mL (≈ 0.241 µM) in assay [10] (setting [24]); 0.391 µg/mL (≈ 0.963 µM) in [11] (setting [25]). In addition, the MIC in assay [12] (setting [26]) stood at 0.098 µg/mL (≈ 0.241 µM); against Escherichia coil 1507E, 0.025 µg/mL (≈ 0.0616 µM); against Escherichia coil DC 0 (setting [27]), 0.195 µg/mL (≈ 0.48 µM); against Escherichia coil DC 2 (setting [28]) it was 0.013 µg/mL (≈ 0.032 µM); against Escherichia coil TEM (setting [29]), 0.007 µg/mL (≈ 0.0172 µM); in [13] it was 0.004 µg/mL (≈ 0.00986 µM). In assay [14], this compound returned an MIC below 0.002 µg/mL.

Turning to `Cl.O=C(C[N+](=O)[O-])c1cn(C2CC2)c2c(Cl)c(N3CC4CCCNC4C3)c(F)cc2c1=O` (racemic) [B, 1-cyclopropyl-3-nitroacetyl-6-fluoro-8-chloro-7-[(trans-piperidinopyrrolidine)-8-yl]-4-oxo-1,4-dihydroquinoline hydrochloride], the minimum inhibitory concentration (MIC) is below 0.025 µg/mL in the assay with Escherichia coli O 78 (Mueller-Hinton agar); 0.098 µg/mL in assay [1] (setting [15]); 0.098 µg/mL in [2] (setting [16]); 0.781 µg/mL in assay [3] (setting [17]); 1.563 µg/mL in [5] (setting [18]); 0.781 µg/mL in assay [6] (setting [19]). Besides, the minimal inhibitory concentration (MIC) against Salmonella typhimurium (setting [20]) is 0.049 µg/mL; in assay [7] (setting [21]), 0.098 µg/mL; in [8] (setting [22]), 0.195 µg/mL; in assay [9] (setting [23]) it was 0.098 µg/mL; in assay [10] (setting [24]), 0.195 µg/mL; in assay [11] (setting [25]), 0.781 µg/mL. For the same compound, the MIC in assay [12] (setting [26]) came to 0.195 µg/mL; in the assay with Escherichia coil 1507E, 0.049 µg/mL; with Escherichia coil DC 0 (setting [27]), 0.391 µg/mL; against Escherichia coil DC 2 (setting [28]), 0.098 µg/mL; against Escherichia coil TEM (setting [29]), 0.049 µg/mL; in [13], 0.025 µg/mL. In addition, in assay [14], the MIC was determined as 0.013 µg/mL.
